Data on 1 molecule can be found in ChEMBL document CHEMBL3832545, “DailyMed|setid=29481887-34eb-460a-bd7f-b8755473065a | EXELON - rivastigmine patch, extended release|Physicians Total Care, Inc”.

Format in all cases: ADME, organism-based
The nature of series [1]: (§1) Evaluation of the pharmacokinetic parameters for Rivastigmine 0.5 to 1 hour after administration of 9.5 mg/24 hours Rivastigmine transdermal system (Exelon patch). The settings on record: human, in vivo, topical or ocular, dosed compound id 5, dosed compound name RIVASTIGMINE, regimen Single dose, sampling time1 0.5-1 hr, study dosing duration 24 hr, tissue Plasma.
The test system of series [2] is Homo sapiens. Described as §1. The settings on record: in vivo, topical_or_ocular, dosed compound id 5, dosed compound name RIVASTIGMINE, regimen Single dose, sampling time1 0.5-1 hr, study dosing duration 24 hr.
Series [3] relates to Homo sapiens. The series can be described thus: Evaluation of the pharmacokinetic parameters for Rivastigmine following multiple oral administration of 6 mg Rivastigmine tablets. Particulars: in vivo, dosed compound id 5, dosed compound name RIVASTIGMINE, regimen Twice daily, tissue Plasma.

Consider `CCN(C)C(=O)Oc1cccc([C@H](C)N(C)C)c1` [RIVASTIGMINE], for which, in series [1] (9.5 mg/24 hours), the CL renal is 35 to 46.7 mL/min. In series [1] (at 9.5 mg, read-out: Protein binding (converted)), the fraction unbound was 0.6. Also, the Tmax with Homo sapiens [2] (tissue Cerebrospinal Fluid (CSF)) is 1.4 to 2.6 h; with Homo sapiens [2] (tissue Plasma), 8 h. The molecule also showed a Vd in the series with Homo sapiens [2] (tissue Plasma) of 1.8 to 2.7 L/kg. For the same molecule, the “Ratio AUC(inf)” value in the series with Homo sapiens [3] is listed as 3.5.

The Tmax is the time from dosing to the highest level.
